The target in test [1] is T1, Human farnesyl protein transferase (Homo sapiens, UniProt P49354+P49356).
T1 construct: grown as monolayer cell cultures were used as a source of human enzyme; endogenous in cells; host or cells: KHOS (Kirsten virus transformed human osteosarcoma) cells, grown as solid tumors in nude mice or as monolayer cultures; 30-50% ammonium sulfate fraction, then Q Fast Flow Sepharose
Put plainly: In vitro assay for inhibition of farnesyl protein transferase (scintillation proximity assay). In kind it is biochemical. As to conditions: concentration producing 50% inhibition of enzyme activity; [3H]-farnesylpyrophosphate and biotinylated lamin B peptide substrates, 60 min at 37° C. The method, then:
Human farnesyl protein transferase was prepared essentially as described (Y. Reiss et al., Methods: A Companion to Methods in Enzymology vol 1, 241-245, 1990). Kirsten virus transformed human osteosarcoma (KHOS) cells (American Type Culture Collection, Rockville, Md., USA) grown as solid tumors in nude mice or grown as monolayer cell cultures were used as a source of human enzyme. Briefly, cells or tumors were homogenized in buffer containing 50 mM Tris, 1 mM EDTA, 1 mM EGTA and 0.2 mM phenylmethylsulfonylfluoride (pH 7.5). The homogenates were centrifuged 28,000×g for 60 min and the supernatants collected. A 30-50% ammonium sulfate fraction was prepared, and the resulting precipitate was resuspended in a small (10 to 20 ml) volume of dialysis buffer containing 20 mM Tris 1 mM dithiothreitol and 20 μM ZnCl2. The ammonium sulfate fraction was dialyzed overnight against two changes of the same buffer. The dialyzed material was applied to a 10×1 cm Q Fast Flow Sepharose (Pharmacia LKB Biotechnology Inc., Piscataway, N.J., USA) which had been preequilibrated with 100 ml of dialysis buffer supplemented with 0.05 M NaCl. The column was washed with an additional 50 ml of dialysis buffer plus 0.05 M NaCl followed by a gradient from 0.05 M to 0.25 M NaCl prepared in dialysis buffer. The enzyme activity was eluted with a linear gradient of 0.25 to 1.0 M NaCl prepared in the dialysis buffer. Fractions containing 4 to 5 ml volumes of column eluate were collected and analyzed for farnesyl protein transferase activity. Fractions with enzyme activity were pooled and supplemented with 100 μM ZnCl2. Enzyme samples were stored frozen at −70° C.
The activity of farnesyl protein transferase was measured using the Farnesyl Transferase [^3H] Scintillation Proximity Assay (Amersham International plc., England) under the conditions specified by the manufacturer. To assay for inhibitors of the enzyme, 0.20 μCi of the [^3H]-famesylpyrophosphate substrate and the biotinylated lamin B peptide substrate (biotin-YRASNRSCAIM) were mixed with test compounds in a reaction buffer consisting of 50 mM HEPES, 30 mM MgCl2, 20 mM KCl, 5 mM dithiothreitol, 0.01% Triton X-100. Test compounds were delivered in a 10 μl volume of dimethylsulfoxide (DMSO) to achieve concentrations of 1 and 10 μg/ml in a final volume of 100 μl. The reaction mixture was warmed to 37° C. The enzyme reaction was started by adding 20 μl of diluted human farnesyl protein transferase. Sufficient enzyme preparation was added to produce between 4000 to 15000 cpm of reaction product during the 60 min of reaction incubation at 37° C. Reactions were terminated by the addition of STOP/scintillation proximity bead reagent (Amersham). The reaction product [^3H]-farnesyl-(Cys)-biotin lamin B peptide was captured on the streptavidin linked scintillation proximity bead. The amount of [^3H]-farnesyl-(Cys)-biotin lamin B peptide synthesized in the presence or absence of test compounds was quantified as cpm by counting on a Wallac Model 1480 Microbeta Liquid Scintillation Counter. The cpm of product was considered to be farnesyl protein transferase activity. The protein farnesyl transferase activity observed in the presence of test compound was normalized to farnesyl transferase activity in the presence of 10% DMSO and expressed as per cent inhibition. […] The effects of test compounds in these studies were calculated as IC50 (concentration of test compound producing 50% inhibition of enzyme activity) using the LGICV50 computer program written by the Science Information Division of R. W. Johnson Pharmaceutical Research Institute (Spring House, Pa., USA) on a VAX computer.

Test [2] concerns NIH 3T3 cells transformed by the T24 activated human H-ras gene. As to the kind of experiment: Ras-transformed cell phenotype reversion assay. In kind it is cell-based, mouse. As to conditions: NIH3T3; cell counts after 72 hours proliferation, corrected for initial input of 200,000 cells. An excerpt:
Insertion of activated oncogenes such as the mutant ras gene into mouse NIH 3T3 cells converts the cells to a transformed phenotype. The cells become tumorigenic, display anchorage independent growth in semi-solid medium and lose contact inhibition. Loss of contact inhibition produces cell cultures which no longer form uniform monolayers. Rather, the cells pile up into multicellular nodules and grow to very high saturation densities in plastic tissue culture dishes. Agents such as protein farnesyl transferase inhibitors which revert the ras transformed phenotype restore the uniform monolayer growth pattern to cells in culture. This reversion is easily monitored by counting the number of cells in tissue culture plates. Transformed cells will achieve higher cell numbers than cells which have reverted to an untransformed phenotype. Compounds which revert the transformed phenotype should produce antitumor effects in tumors bearing ras gene mutations.
Compounds are screened in tissue culture in NIH 3T3 cells transformed by the T24 activated human H-ras gene. Cells are seeded at an initial density of 200,000 cells per well (9.6 cm^2 surface area) in six-well cluster tissue culture plates. Test compounds are immediately added to 3.0 ml cell growth medium in a 3.0 μl volume of DMSO, with a final concentration of DMSO in the cell growth medium of 0.1%. The test compounds are run at concentrations of 5, 10, 50, 100, and 500 nM along with a DMSO treated vehicle control. (In case a high activity is observed at 5 nM, the test compound is tested at even lower concentrations.) The cells are allowed to proliferate for 72 hours. Then the cells are detached in 1.0 ml trypsin-EDTA cell dissociation medium and counted on a Coulter particle counter.
Cell numbers expressed as cells per well are measured using a Coulter Particle Counter.
All cell counts were corrected for the initial cell input density by subtracting 200,000.
Control cell counts=[cell counts from cells incubated with DMSO vehicle −200,000].
Test compound cell counts=[cell counts from cells incubated with test compound −200,000]. [formula]
IC50 (i.e. the test compound concentration required to inhibit enzyme activity by 50%) is calculated if sufficient data are available, summarized in table 11.

Test [3] has as its system T24 activated human H-ras gene transformed NIH 3T3 fibroblast cells (T24 cells). As to the kind of experiment: Farnesyl protein transferase inhibitor secondary tumor model. In kind it is in vivo. As to conditions: nude mice with subcutaneous T24 cell tumors, 15 days of treatment. An excerpt: The enzyme farnesyl protein transferase catalyzes the covalent attachment of a farnesyl moiety derived from farnesyl pyrophosphate to the oncogene product p21^ras. This directs p21^ras to attach to plasma membranes. Once attached to plasma membranes, mutant or oncogenic forms of p21^ras will provide a signal for the transformation and uncontrolled growth of malignant tumor cells. Therefore, inhibitors of protein farnesyl transferase will prevent the membrane attachment of p21^ras and inhibit growth of ras-transformed tumors.
Nude mice are inoculated with 1×10^6 of T24 activated human H-ras gene transformed NIH 3T3 fibroblast cells (T24 cells), subcutaneously in the inguinal region. After three days to allow tumors to become established, treatment with test compounds is begun via the oral route. The test compounds are dissolved in a 20% β-cyclodextrin in 0.1 N HCl solution and administered orally as 0.1 ml of compound solution per 10 g mouse body weight. Routinely used doses are 6.25, 12.5 and 25 mg/kg. Body weights and tumor sizes are monitored during the ensuing 15 days of treatment. At the end of treatment, animals are sacrificed and tumors are weighed.
The “mean vehicle treated tumor weight” is defined as the mean tumor weight from 10 to 15 mice […].
The “mean tumor weight” is defined as the mean tumor weight from 10 to 15 mice […]. [formula]

SMILES strings stand for the structures. Counter-ions that a name gives are not always drawn.

One may read the IC50 as the concentration that gives 50% inhibition. High values mean lower potency, low ones higher potency. With `CCOc1cccc(-c2cc(=O)n(C)c3ccc(C(O)(c4ccc(Cl)cc4)c4cncn4C)cc23)c1` (stereo not drawn) [Compound 34, 6-[(4-chlorophenyl)hydroxy(1-methyl-1H-imidazol-5-yl)methyl]-4-(3-ethoxyphenyl)-1-methyl-2(1H)-quinolinone], the IC50 was 1.6 nM in test [1] and 3 nM in test [2]. The “% reduction final tumor weight at a dose of 25 mg/kg bid, po” value in test [3] came to 56%.

Consider `CCOc1cccc(-c2cc(=O)n(C)c3ccc(C(c4ccc(Cl)cc4)c4cncn4C)cc23)c1` (stereo not drawn) [Compound 35, 6-[(4-chlorophenyl)(1-methyl-1H-imidazol-5-yl)methyl]-4-(3-ethoxyphenyl)-1-methyl-2(1H)-quinolinone monohydrochloride.monohydrate], for which the IC50 in test [1] is 0.39 nM; in test [2], 3.4 nM. The “% reduction final tumor weight at a dose of 25 mg/kg bid, po” value in test [3] worked out at 39%.

These data come from US6420387B1, “Farnesyl protein transferase inhibiting (imidazol-5-yl) methyl-2-quinolinone derivatives” (Janssen Pharmaceutica N.V., priority 1995, dated 2002).
